Reference: patent US4585866A, “Treatment of migraine with substituted tropyl benzoate derivatives” (Merrell Dow Pharmaceuticals Inc., priority 1984, dated 1986)

How the values were obtained:
[1] = target: T1, 5-HT M-receptor (Oryctolagus cuniculus, UniProt A0A5F9C9J3); conditions: cited from earlier work
T1 construct: determining their pA2 values in the isolated rabbit heart; from tissue; host or cells: isolated rabbit heart (receptor on the cardiac neurones)
T1 sequence (A0A5F9C9J3 1-494): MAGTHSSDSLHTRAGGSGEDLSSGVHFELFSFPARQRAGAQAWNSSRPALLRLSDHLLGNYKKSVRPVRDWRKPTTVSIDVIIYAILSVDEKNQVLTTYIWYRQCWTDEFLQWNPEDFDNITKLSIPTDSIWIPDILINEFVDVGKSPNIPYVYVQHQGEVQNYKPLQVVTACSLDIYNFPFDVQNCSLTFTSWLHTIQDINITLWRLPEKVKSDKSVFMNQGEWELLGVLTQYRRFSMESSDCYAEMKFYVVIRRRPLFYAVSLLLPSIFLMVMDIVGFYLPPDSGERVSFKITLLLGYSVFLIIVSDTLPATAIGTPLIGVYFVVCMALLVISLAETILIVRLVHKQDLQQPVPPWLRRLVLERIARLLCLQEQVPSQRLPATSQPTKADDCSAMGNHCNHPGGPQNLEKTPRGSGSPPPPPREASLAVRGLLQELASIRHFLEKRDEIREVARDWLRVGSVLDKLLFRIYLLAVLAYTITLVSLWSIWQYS

[2] = tested on: acute migraine attack; conditions: slow intravenous injection, 10 mg; J. B. Hughes, Med. J. Aust. 1977; cited from earlier work
[3] = LD50 in the mouse; assay type: in vivo; conditions: in vivo, mouse
[4] = tested on: mouse; test: LD50 in the mouse; assay type: in vivo; conditions: as shown by LD50 values in the mouse and rat
[5] = tested on: guinea-pig ileum; test: Inhibition of standard response to carbachol, guinea-pig ileum; assay type: cell-based; conditions: Cavia porcellus, carbachol agonist instead of acetylcholine, read-out: Concentration to inhibit standard response to stimulants by 50% (IC50)
From the text: (§1) A selection of classical in vitro pharmacological test preparations (rat uterus, rat fundus, guinea-pig ileum, guinea-pig taenia caeci) were set up according to well-established procedures (see "Pharmacological Experiments on Isolated Preparations" Staff of the Department of Pharmacology, University of Edinburgh, Livingstone, Edinburgh 1970). Various spasmogens were used to elicit contraction of these tissues though mechanisms other than the 5-HT "M" receptor. The concentrations of tropyl 3,5-dimethoxybenzoate (A), tropyl 3,5-dimethylbenzoate (B) and tropyl 3,5-dichlorobenzoate (C) which reduced the effects of a submaximal dose of agonist by 50% were determined (IC50). The results are set forth in Table VI below in which the compounds are identified by the reference letters used above.
**Carbachol agonist instead of acetylcholine

[6] = target: T1, 5-HT M-receptor; test: pA2 against 5-HT in isolated rabbit heart; assay type: cell-based; conditions: isolated rabbit heart; negative log of molar concentration of antagonist reducing effect of twice the ED50 of 5-HT to that of the ED50; read-out: pA2 5-HT (converted)
Experimental: (§2) The activity of the compounds against 5-HT can be assessed by determining their pA2 values in the isolated rabbit heart as described by J. R. Fozard et al, Eur. J. Pharmacol., 59, 195-210 (1979). In the method described, the molar concentration of antagonist which reduces the effects of twice the ED50 of 5-HT to that of the ED50 in the absence of antagonist is determined. The pA2 value is the negative logarithm of said molar concentrations.

[7] = tested on: guinea-pig taenia caeci; test: Inhibition of standard response to calcium, guinea-pig taenia caeci; assay type: cell-based; conditions: Cavia porcellus; guinea-pig taenia caeci in potassium-depolarized Tyrode solution, agonist calcium; read-out: Concentration to inhibit standard response to stimulants by 50% (IC50)
From the text: as §1
*In potassiumdepolarized Tyrode solution

[8] = tested on: Von Bezold-Jarisch Reflex (5-HT M-receptor); test: Antagonism of the Von Bezold-Jarisch reflex evoked by 5-HT in the anaesthetized rat; assay type: in vivo, rat (male Sprague-Dawley); conditions: comparison in words, i.v.
From the text: The activity of these compounds against 5-HT can be assessed in vivo by measurement of the effect of the compound on the Von Bezold-Jarisch Reflex induced by 5-HT injected intravenously into the rat (A. S. Paintal, Physiol. Rev. 53, 159-227, 1973). The transient caridac slowing arises from an increased afferent vagus activity arising from stimulation by 5-HT of sensory afferent fibres in and around the heart (see Example 3).
Antagonism of the Von Bezold-Jarisch reflex evoked by 5-HT in the anaesthetized rat was measured for tropyl 3,5-dimethoxybenzoate (A), tropyl 3,5-dimethylbenzoate (B) and tropyl 3,5-dichlorobenzoate (C) using the following method.
Male Sprague-Dawley rats weighing 250-300 g are anaesthetized with urethane, 1.25 g/kg injected intraperitoneally and set up for recording blood pressure and heart rate as described in J. R. Fozard et al, J. Cardiovas. Pharmacol. 2, 229-245 (1980). A submaximal dose of 5-HT ([…]) is given repeatedly into the cannulated jugular vein and changes in heart rate are quantified. Antagonists are given intravenously and the doses required to just inhibit the response to 5-HT (threshold dose) or to inhibit the response to 5-HT by 50% (ED50) are determined.

[9] = target: T2, rabbit heart (5-HT M receptor) (Oryctolagus cuniculus, UniProt A0A5F9C9J3); test: Inhibition of standard response to 5-HT, rabbit heart; assay type: cell-based; conditions: rabbit heart, agonist 5-HT; read-out: Concentration to inhibit standard response to stimulants by 50% (IC50)
T2 construct: RABBIT HEART; from tissue; host or cells: rabbit heart
T2 sequence (A0A5F9C9J3 1-494): T1 sequence (A0A5F9C9J3 1-494)
Experimental: as §2, §1

[10] = LD50 in the rat; conditions: in vivo, iv

SMILES | potency as 5-HT M-receptor antagonist ([1]; literature) | pA2 value (5-HT) ([1]; reported by J. R. Fozard et al, Eur. J. Pharmacol. 1979 / 1978) | relief of acute migraine attack [2] | LD50 ([3]; ip) | LD50 ([3]; iv) | LD50 ([3]; oral) | toxicity in words [4] | IC50 [5] | Kb [6] | IC50 [7] | potency relative to metoclopramide [8] | IC50 [9] | LD50 [10]
CCN(CC)CCNC(=O)c1cc(Cl)c(N)cc1OC [metoclopramide] | potent 5-HT M-receptor antagonist | 7.2 | immediate relief of acute migraine attack |  |  |  |  |  |  |  |  |  | 
Cc1cc(C)cc(C(=O)O[C@H]2C[C@H]3CC[C@@H](C2)N3C)c1 [tropyl 3,5-dimethylbenzoate] |  |  |  | 47 mg/kg | 17 mg/kg | 116 mg/kg | relatively non-toxic | 9.59 µM | 0.001 µM | 34.2 µM | many times more potent than metoclopramide | 0.00103 µM | 9 mg/kg
